Measured values published in US10736898B2, “Positive allosteric modulators of the muscarinic acetylcholine receptor M4” (Vanderbilt University, priority 2017, dated 2020).

Legend:
male Sprague-Dawley rats = assay: Reversal of amphetamine-induced hyperlocomotion in rats; assay type: in vivo, rat
Experimental: Drugs: d-Amphetamine hemisulfate was obtained from Sigma (St. Louis, Mo.). Salt-correction was used to determine the correct amount of the d-amphetamine hemisulfate form in milligrams to add to sterile water in order to yield a 0.75 mg/mL solution, which would be dosed at 1 mL/kg body weight of each animal. […] The solutions were formulated so that animals were injected with a volume equal to 10 mL/kg body weight for all compounds. The appropriate amount according to the dosage was mixed in 10% Tween 80 (Sigma) 90% sterile water. The mixtures were then vortexed and stored in a 39° C. sonication bath for 1 hour, until in a microsuspension (except for the highest dose, which was a suspension).
Animals: Male Sprague-Dawley rats weighing 239-300 grams and averaging 265 g (Harlan, Inc., Indianapolis, Ind.) were used. They were housed in the animal care facility certified by the American Association for the Accreditation of Laboratory Animal Care (AALAC) under a 12-hour light/dark cycle (lights on: 6 a.m.; lights off: 6 p.m.) and had free access to food and water. The animals used in this experiment were food-deprived the evening before experimentation for oral dosing of compound/vehicle. The experimental protocols performed during the light cycle were approved by the Institutional Animals Care and Use Committee of Vanderbilt University and conformed to the guidelines established by the National Research Council Guide for the Care and Use of Laboratory Animals.
Amphetamine-induced Hyperlocomotion: Male Harlan Sprague Dawley rats were habituated in Smart Open Field locomotor activity test chambers (Hamilton-Kinder, San Diego, Calif.) with 16×16 photo beams to automatically record locomotor activity. […] They were monitored for an additional 30 minutes and then injected subcutaneously with vehicle or […] amphetamine. Animals were then monitored for an additional 60 minutes, for a total of 120 minutes. Data were expressed as changes in ambulation defined as total number of beam breaks per 5 minute interval. […]
Data Analysis: Behavioral data were analyzed using a two-way ANOVA with main effects of treatment and time. […] In addition, the total number of beam breaks from the amphetamine administration (65 min) to the end of the study (120 min) was calculated and graphed. Percent Reversal was calculated as follows using Microsoft Excel: In each animal, total ambulation from t=65 to t=120 was summed. The mean of each sum was calculated in the VAMP group. Then, for each animal, Percent Reversal was calculated with the following formula: Percent Reversal=100−{[(total ambulation in each animal from t=65 to t=120)/(mean of each sum from t=65 to t=120 in VAMP group)]*100}. The mean Percent Reversal, as well as the standard error, was calculated for each dose group using GraphPad Prism V5.04.

MDCK-MDR1 cells = assay: Bidirectional permeability/efflux in MDCK-MDR1 cells; assay type: in vitro ADME, canine; settings: efflux ratio
Experimental: (§1) Compound 1 was evaluated in several well-known in vitro assays to investigate both metabolism and pharmacokinetics. Bidirectional permeability/efflux was determined in MDCK-MDR1 cells, which originate from transfection of Madin Darby canine kidney (MDCK) cells with the MDR1 gene. These assays were performed according to known methods as generally described in the following references: Conde-Ceide et al. ACS Med. Chem. Lett. 2015, 6, 716-720; Morris et al. J. Med. Chem. 2014, 57, 10192-10197; and Bubser et al. ACS Chem. Neurosci. 2014, 5, 920-942.

MDR1 = assay: as above; assay type: in vitro ADME, canine; settings: dog
Experimental: as §1

Human Fu (plasma) = assay type: in vitro ADME
Experimental: as §1

Rat Fu (brain) = assay type: in vitro ADME
Experimental: as §1

Rat CLint = assay type: in vitro ADME
Experimental: as §1

Dog CLint = assay type: in vitro ADME
Experimental: as §1

- MDCK-MDR1 ER (MDCK-MDR1 cells): 1.5 (Papp A→B:
- Papp A→B (MDR1): 46.7 ×10⁻⁶ cm/s
- fraction unbound (Human Fu (plasma)): 0.014
- fraction unbound (Rat Fu (brain)): 0.016
- CLint scaled (Rat CLint): 78 mL/min/kg
- CLint scaled (Dog CLint): 17 mL/min/kg
SMILES: Cc1nc(C)c2c(n1)sc1c(NCc3ccc(C(C)(C)O)cc3)ncnc12 [Compound 1, 2-(4-(((7,9-Dimethylthieno[2,3-d:4,5-d′]dipyrimidin-4-yl)amino)methyl)phenyl)propan-2-ol]
- percent reversal of amphetamine-induced hyperlocomotion (male Sprague-Dawley rats; 1 mg/kg p.o.): 30.5%
- percent reversal of amphetamine-induced hyperlocomotion (male Sprague-Dawley rats; 3 mg/kg p.o.): 41.1%
- percent reversal of amphetamine-induced hyperlocomotion (male Sprague-Dawley rats; 10 mg/kg p.o.): 54.2%
